# Values quoted from earlier work in patent US20080146639A1, “Pharmaceutical Combination of Angiotensin II Antagonists and Angiotensin I Converting Enzyme Inhibitors” (Boehringer Ingelheim Pharma GmbH & Co Kg., priority 2000, published 2008).
# Conditions: treatment with ACE inhibitor ramipril; HOPE study (New Engl. J. Med., Jan. 20, 2000)
smiles,measurement,value
CCOC(=O)[C@H](CCc1ccccc1)N[C@@H](C)C(=O)N1[C@H](C(=O)O)C[C@@H]2CCC[C@@H]21 [ramipril],reduction of the risk of the combined primary cardiovascular outcome,22%
